# Results taken from publication PMC5371653, “Pharmacological and Biochemical Characterization of TLQP-21 Activation of a Binding Site on CHO Cells” (Frontiers in Pharmacology, 2017).
# Read-outs that look alike come from different tables or passages of the source.
# Experiments:
# CHO cells [1] = assay type: cell-based; settings: for intracellular Ca2+ levels, maximal response (ΔF/F): peptide 1 μM, vs. HBSS, at least five wells
# Method: CHO cells were plated at 20.000 cells/well into black walled, clear bottom 96-well plate (Corning, Germany) and cultured one day up to 80–90% of confluence. […] TLQP-21, TLQP-62, TLQP-8, HHPD-41, HFHH-10, and LRPS-21 were diluted in HBSS solution and injected into the wells by an automated injector system. […] Depletion of Ca^2+ from the ER leads to Ca^2+ entry from outside the cell by activation of Store-Operated Channels (SOCs).
# [2] = test system: TLQP-21 binding sites on CHO cell membranes; test: TLQP-21 binding assay with [125I]-YATL-23 on crude CHO cell membranes; settings: competition with 1 nM [125I]-YATL-23, competitor 10 pM to 0.1 μM
# Method: Binding of TLQP-21 to crude membranes (30,000 × g pellet) obtained from CHO cells was carried out using [^125I]-YATL-23 as ligand. YATL-23 was radioiodinated (specific activity, 2000 Ci/mmol) using the lactoperoxidase method ([Muccioli et al., 1998]; [Muccioli et al., 2001]) by Perkin Elmer (Milan, Italy) and purified by reverse phase high-performance liquid chromatography. For the single point binding assay, cell membranes (corresponding to 100 μg membrane protein) were incubated in triplicate at 23°C, unless otherwise noted, for 4 h under constant shaking with 0.5 nM [^125I]-YATL-23 in a final volume of 0.5 ml assay buffer (50 mM Tris, 2.5 mM EGTA, 0.002% bacitracin, 0.1% bovine serum albumin, titrated to a final pH of 7.4 with HCl). Non-specific binding was measured in parallel incubations with 1 μM unlabelled YATL-23 to displace the radioligand. Similar results were obtained using TLQP-21 to displace the radioligand. The binding reaction was terminated by the addition of ice-cold assay buffer, followed by rapid filtration through Whatman GF/B filters as previously reported ([Muccioli et al., 1998]) and the radioactivity bound to membranes was measured by a Packard auto-γ-counter. Specific binding-values were calculated as the difference obtained subtracting non-specific from total binding. Specific binding was expressed as a percentage of the total radioactivity added. […]
# CHO cells [3] = settings: ref Cassina et al., 2013; cited from earlier work
# Text: Among several bioactive peptides derived from VGF, TLQP-21 (VGF^556-576) is a 21 amino acid peptide which has been immunopurified from brain tissues ([Bartolomucci et al., 2006]). Despite many efforts to characterize the physiological effects of TLQP-21, little is known about its molecular targets. Nonetheless, adipocytes express a high affinity binding site for TLQP-21 and in these cells TLQP-21 stimulates a pro-lipolytic effect ([Possenti et al., 2012]).
# [4] = inhibitor 10 μM, 20 min pretreatment, then 1 μM TLQP-21
compound,measurement,setting,value
"HFHHALPPAR [HFHH-10, 10 amino acids at the C-terminal of TLQP-21]","intracellular Ca2+ levels, maximal response (ΔF/F)",CHO cells [1]; repeated at least three times,effectively stimulated
"HHPDLEAQARRAQEEADAEERRLQEQEELENYIEHVLLHRP [HHPD-41, VGF-derived peptide from processing of TLQP-62]","intracellular Ca2+ levels, maximal response (ΔF/F)",CHO cells [1]; repeated at least three times,ineffective
COc1ccc(CCCOC(Cn2ccnc2)c2ccc(OC)cc2)cc1 (stereo not shown) [SKF-96365],decrement in TLQP-21-mediated intracellular Ca2+ mobilization,CHO cells [1]; [4],about 36%
Cc1nnsc1C(=O)Nc1ccc(-n2nc(C(F)(F)F)cc2C(F)(F)F)cc1 [YM-58483],decrement in TLQP-21-mediated intracellular Ca2+ mobilization,CHO cells [1]; [4],~27%
"NCCOB(c1ccccc1)c1ccccc1 [2-APB, 2-Aminoethyl diphenylborinate]",decrement of TLQP-21 intracellular Ca2+ mobilization,"CHO cells [1]; inhibitor 75 μM, 15 min preincubation, then 1 μM TLQP-21",about 79%
"LRPSHTRPAHQSFARP LHRPA [LRPS-21, scrambled control peptide with the same amino acid residues as TLQP-21]","intracellular Ca2+ levels, maximal response","CHO cells [1]; peptide 1 nM–10 μM, TLQP-21 significant (P < 0.05) at 0.1 μM–10 μM, at least six wells, repeated at least three times",did not stimulate
same,inhibition of [125I]-YATL-23 binding to CHO membranes,[2],not inhibited
same,stimulation of intracellular Ca2+ in CHO cells,CHO cells [3],did not stimulate
"C/C=C(/C)C(=O)O[C@H]1C(C)=C2[C@H]([C@@H]1OC(=O)CCCCCCC)[C@@](C)(OC(C)=O)C[C@H](OC(=O)CCC)[C@@]1(O)[C@H]2OC(=O)[C@@]1(C)O [TG, thapsigargin]",reduction of TLQP-21-mediated increase of intracellular Ca2+,"CHO cells [1]; inhibitor 2 μM, 20 min preincubation, then 1 μM TLQP-21",56%
TLQPPASSRRRHFHHALPPARHHPDLEAQARRAQEEADAEERRLQEQEELENYIEHVLLHRP [TLQP-62],"intracellular Ca2+ levels, maximal response (ΔF/F)",CHO cells [1]; repeated at least three times,failed to stimulate any significant increase
CC(C)C[C@H](NC(=O)[C@@H](N)[C@@H](C)O)C(=O)N[C@@H](CCC(N)=O)C(=O)N1CCC[C@H]1C(=O)N1CCC[C@H]1C(=O)N[C@@H](C)C(=O)N[C@@H](CO)C(=O)N[C@@H](CO)C(=O)N[C@@H](CCCNC(=N)N)C(=O)N[C@@H](CCCNC(=N)N)C(=O)N[C@@H](CCCNC(=N)N)C(=O)N[C@@H](Cc1c[nH]cn1)C(=O)N[C@@H](Cc1ccccc1)C(=O)N[C@@H](Cc1c[nH]cn1)C(=O)N[C@@H](Cc1c[nH]cn1)C(=O)N[C@@H](C)C(=O)N[C@@H](CC(C)C)C(=O)N1CCC[C@H]1C(=O)N1CCC[C@H]1C(=O)N[C@@H](C)C(=O)N[C@@H](CCCNC(=N)N)C(=O)O [TLQP-21],EC50,"CHO cells [1]; CHO cells, stated as 1 μM being close to the EC50, read-out: EC50 of intracellular Ca2+ mobilization",~1 µM
Cyclosporine A [CsA],basal levels of intracellular Ca2+,"CHO cells [1]; 2 μM, before TLQP-21",did not modify
same,effect on TLQP-21 Ca2+ stimulation,"CHO cells [1]; inhibitor 2 μM, 15 min preincubation, then 1 μM TLQP-21",did not affect
COc1ccc2c(c1)CC[C@@H]1[C@@H]2CC[C@]2(C)[C@@H](NCCCCCCN3C(=O)C=CC3=O)CC[C@@H]12 [U73122],reduction of TLQP-21 stimulation of intracellular Ca2+ mobilization,"CHO cells [1]; inhibitor 10 μM, 10 min preincubation, then 1 μM TLQP-21",about 82%
"TLQPPASS [TLQP-8, 8 amino acids at the N-terminal of TLQP-21]","intracellular Ca2+ levels, maximal response (ΔF/F)",CHO cells [1]; repeated at least three times,slight and non-significant increase
O=C(O)CN(CCOCCOCCN(CC(=O)O)CC(=O)O)CC(=O)O [EGTA],decrement in TLQP-21-mediated intracellular Ca2+ mobilization,"CHO cells [1]; chelator 1 mM, 30 min pretreatment, then 1 μM TLQP-21",~45%
